In brackets after ≈: the same amount, converted by molar mass. Like-named read-outs stand apart in the source and are kept apart here.
How the values were obtained:
[1] = system: Pneumocystis carinii; test: Pneumocystis carinii infection in immunosuppressed mice, lung cyst count; format: in vivo, C3H/He mice; conditions: 2.0 mg/kg intraperitoneally twice daily, lung tissue
Procedure: In a representative study on the effectiveness of Compound IB, ten male C3H/He mice, weighing 22-24 gms. each, were immunosuppressed by the addition of dexamethasone to the drinking water (8.0 mg/L) for six weeks to induce the development of P. carinii infections. To enhance the infection the mice were also maintained on a low protein diet. At the beginning of the seventh week the mice were divided into two groups. Both groups continued to receive dexamethasone in the drinking water and low protein diet for the remainder of the study. Mice in Group I were injected intraperitoneally twice daily with 0.5 ml of a 10% dimethylsulfoxide (DMSO) solution as a vehicle control. Mice in Group II were injected intraperitoneally twice daily with 0.5 ml of sterile water containing 0.05 mg of compound IB (dissolved in DMSO, final concentration of DMSO is 10%, actual dose was 2.0 mg/kg). […]
At the end of the treatment period (a total of eight weeks immunosuppression) the animals were sacrificed and the lung tissue removed. The tissue was then processed to determine the number of cysts for each animal. Compound IB reduced the number of cysts by 84% as compared to the control animals. […]

[2] = system: red blood cells; test: titration/hemolysis assay, red blood cell lysis; format: cell-based, CD-1 female mice; conditions: highest drug concentration that did not lyse the red blood cells; 25°C, two hours; 5 percent dextrose
Procedure: Compound I or a component thereof has potential as a replacement for a known antifungal agent which while effective as an antifungal agent is of limited utility for having lytic effect on red blood cells at low dose levels. This property was discovered in a standard titration/hemolysis assay using fresh blood drawn from CD-1 female mice. In a representative assay, a concentration of Compound IB in the range of from 0.39 to 400 µg/ml in 5 percent dextrose and a drug free control were employed.
In carrying out the determination, the assay tubes prepared by mixing together 2 milliliters of appropriate drug dilution and 0.5 milliliter of red blood cell suspension were gently shaken to mix the contents and then the tubes were incubated at 25°C for two hours. At the end of this time, the tubes were examined visually for complete or partial red blood cell hemolysis and compared to a drug free control. […] The MLC for Compound IB was greater than 400 µg/ml.

[3] = system: Candida albicans; test: microbroth dilution assay, minimum fungicidal concentration (MFC); format: cell-based
Procedure: (§1) The activity may be seen in a microbroth dilution assay employing as medium a Yeast Nitrogen Base (Difco) with 1% dextrose (YNBD) as the medium. In carrying out the assay, Compound IB, IC-1 and IC-2 were solubilized in 10 percent dimethyl sulfoxide (DMSO) and diluted to 2560 µg/ml. The compounds were then diluted to 256 µg/ml in YNBD. 0.15 ml of the suspension was dispensed to the top row of a 96-well plate (each well containing 0.15 ml of YNDB) resulting in a drug concentration of 128 µg/ml. Two-fold dilutions were then made from the top row to obtain final drug concentrations ranging from 128 to 0.06 µg/ml.
(§2) The yeast cultures, maintained on Sabouraud dextrose agar were transferred to YM broth (Difco) and incubated overnight at 35°C with shaking (250 rpm). After incubation, each culture was diluted in sterile water to yield a final concentration of 1-5 x 10⁶ colony forming units (CFU)/ml.
(§3) 96-well microplates were inoculated using a MIC-2000 (Dynatech) which delivers 1.5 µl per well yielding a final inoculum per well of 1.5-7.5 x 10³ cells. The microplates were incubated at 35°C for 24 hours. The minimum inhibitory concentrations (MICs) were recorded as the lowest concentrations of drug showing no visible growth.
(§4) After recording the MIC, the plates were shaken to resuspend the cells. Thereafter, […] samples from the wells in the 96-well microplate were transferred to a single well tray containing Sabouraud dextrose agar. The inoculated trays were incubated 24 hours at 28°C and then read. The MFC is defined as the lowest concentration of drug showing no growth or less than 4 colonies per spot.

[4] = system: Candida parapsilosis; test: as above; format: cell-based; conditions: Lodderomyces parapsilosis, YNBD medium
Procedure: as §1, §2, §3, §4

[5] = system: Candida tropicalis; test: as above; format: cell-based; conditions: read-out: Minimum Fungicidal Concentration
Procedure: as §1, §2, §3, §4

Molecule	reduced the number of cysts as compared to the control animals ([1]; treatment period one week)	minimum lytic concentration (MLC) [2]	reduced the number of cysts as compared to the control animals ([1]; treatment period two weeks)	MFC ([3]; read-out: Minimum Fungicidal Concentration, Candida albicans MY 1028, YNBD medium)	MFC ([3]; read-out: Minimum Fungicidal Concentration, Candida albicans MY 1055, YNBD medium)	MFC ([3]; read-out: Minimum Fungicidal Concentration, Candida albicans MY 1208, YNBD medium)	MFC ([3]; read-out: Minimum Fungicidal Concentration, Candida albicans MY 1585, YNBD medium)	MFC ([3]; read-out: Minimum Fungicidal Concentration, Candida albicans MY 1750, YNBD medium)	MFC ([3]; read-out: Minimum Fungicidal Concentration, Candida albicans MY 1783, YNBD medium)	MFC ([4]; read-out: Minimum Fungicidal Concentration, Candida parapsilosis MY 1009)	MFC ([4]; read-out: Minimum Fungicidal Concentration, Candida parapsilosis MY 1010)	MFC [5]
1-[N²-(10,12-dimethyl-1-oxotetradecyl)ornithine]-4-[4-(4-hydroxyphenyl)-2-aminobutanoic acid]-5-(3-hydroxyglutamine)echinocandin B [Compound IC]	66%	–	–	–	–	–	–	–	–	–	–	–
CCC(C)CC(C)CCCCCCCCC(=O)NC1CCC(O)NC(=O)C2C(O)C(C)CN2C(=O)C(C(O)CC(N)=O)NC(=O)C(CCc2ccc(O)cc2)NC(=O)C2CC(O)CN2C(=O)C(C(C)O)NC1=O (stereo not shown) [Compound IB, 1-[5-hydroxy N²-(10, 12-dimethyl-1-oxotetra-decyl)-ornithine]-4-[4-(4-hydroxyphenyl)-2-amino-butanoic acid]-5-(3-hydroxyglutamine) echinocandin B]	–	greater than 400 µg/ml	84%	1 µg/mL (≈ 0.97 µM)	0.5 µg/mL (≈ 0.485 µM)	2 µg/mL (≈ 1.94 µM)	1 µg/mL (≈ 0.97 µM)	1 µg/mL (≈ 0.97 µM)	2 µg/mL (≈ 1.94 µM)	16 µg/mL (≈ 15.5 µM)	8 µg/mL (≈ 7.76 µM)	2 µg/mL (≈ 1.94 µM)
C[C@@H]1[C@H](O)[C@@H](C)/C=C/C=C/C=C/C=C/C=C/C=C/C=C/[C@H](O[C@@H]2O[C@H](C)[C@@H](O)[C@H](N)[C@@H]2O)C[C@@H]2O[C@](O)(C[C@@H](O)C[C@@H](O)[C@H](O)CC[C@@H](O)C[C@@H](O)CC(=O)O[C@H]1C)C[C@H](O)[C@H]2C(=O)O [amphotericin B, reference compound]	–	12.5 µg/mL	–	–	–	–	–	–	–	–	–	–
